This is an account of results in patent US10538521B2, “Pyrimidine derivative having antimalarial activity” (CARNA BIOSCIENCES, INC., priority 2016, dated 2020).

Experiment [1] concerns FCR3 strain, a drug sensitive strain of Plasmodium falciparum. Briefly: In vitro antimalarial assay (p-LDH, Malstat), FCR3 strain. The class given is cell-based. To be noted: P. falciparum FCR3 (drug sensitive), 72 h culture, p-LDH readout, read-out: Antimalarial activity (IC50 value), Strain FCR3. From the text: (§1) For the evaluation of the antimalarial activity of the compound of the present invention, K1 strain, a drug resistant strain of Plasmodium falciparum, and FCR3 strain, a drug sensitive strain thereof, which were generous gift from Professor Kiyoshi Kita of the Graduate School of Medicine and Faculty of Medicine, the University of Tokyo, were used to measure the in vitro antimalarial activity of the compound against those Plasmodium species according to the method established by Otoguro et al. (Otoguro, K., Kohana, A., Manabe, C., Ishiyama, A., Ui, H., Shiomi, K., Yamada, H. & Omura, S.: Potent antimalarial activity of polyether antibiotic, X-206. J. Antibiot., 54: 658-663, (2001)).
(§2) The parasites were grown based on a slightly modified method from the original method reported by Trager and Jensen (Trager, W. and Jensen, J.: Human malaria parasites in continuous culture, Science, 193: 673-677, (1976)), and those which were maintained and sub-cultured by the method were used. More specifically, in a culture dish, erythrocytes infected with the protozoa, which had been sub-cultured using a RPMI 1640 medium to which 10% human plasma had been added and fresh human erythrocytes, were diluted (hematocrit value: 2 to 5%, parasitaemia: 0.25 to 1%), and were cultured at 37° C. in a mixed gas of 3% O2-4% CO2-93% N2, and continuously cultured while changing the medium and adding fresh erythrocytes at 2- or 3-day intervals.
(§3) A drug susceptibility test was performed by modifying the method established by Desjardins et al. (Desjardins, R. E., Canfield, C. J., Haynes, D. E. and Chulay, J. D.: Quantitative assessment of antimalarial activity in vitro by a semiautomated microdilution technique. Antimicrob. Agents Chemother., 16: 710-718 (1979)). More specifically, 190 μL of a suspension of protozoa which had been precultured (hematocrit value: 2%, parasitaemia: 0.5 or 1%) and 10 μL of a solution of a test compound (5% DMSO solution) serially diluted so that the final concentration was 12.5 to 0.0001 μM were put in each well of a 96-well plate, and after mixing, the same was cultured for 72 hours in the above mixed gas.
(§4) For the measurement of the growth of protozoa, the method established by Makler (Makler, M. T., Rise, J. M., Williams, J. A., Bancroft, J. E., Piper, R. C., Gibbins, B. L. and Hinrichs, D. J.: Parasite lactate dehydrogenase as an Assay for Plasmodium falciparum drug sensitivity, Am. J. Med. Hyg., 48: 739-741 (1993)) was modified to colorimetrically determine parasite lactate dehydrogenase (p-LDH) using Malstat reagent (Flow Inc., USA).
(§5) More specifically, 72 hours after the culture, the 96-well plate was directly frozen at −20° C. for 18 hours and melted at 37° C. to hemolyze the protozoan-infected erythrocytes and destroy the protozoa to prepare a crude enzyme solution. 100 μL of Malstat reagent and 20 μL of the crude enzyme solution were added to and mixed in each well of another 96-well plate, and after reacting for 15 minutes at room temperature, 20 μL of a nitroblue tetrazolium 2 mg/mL phenazine ethosulfate 0.1 mg/mL=1:1 solution was added to the respective wells, and reaction was performed in dark conditions at room temperature for 2 hours.
(§6) The absorbance of the blue formazan product formed by the reaction was measured at a measurement wavelength of 655 nm by using a microplate reader (Labsystems, Finland) to colorimetrically determine the growth of the protozoa. The 50% growth inhibitory concentration for the protozoa of the compound (IC50 value) was determined based on the concentration-response curve of the compound.

The subject of experiment [2] is K1 strain, a drug resistant strain of Plasmodium falciparum. The experiment in a line: In vitro antimalarial assay (p-LDH, Malstat), K1 strain. Format: cell-based. To be noted: P. falciparum K1 (drug resistant), 72 h culture, p-LDH readout, read-out: Antimalarial activity (IC50 value), Strain K1.
From the text: as §1, §2, §3, §4, §5, §6

SMILES strings stand for the structures.

Regarding `CCc1ccnc(Nc2nc(Nc3ccn4ccnc4c3)cc(N3CCC4(CCCC4)C3)n2)c1` [Example 208, N2-(4-ethylpyridin-2-yl)-N4-(imidazo[1,2-a]pyridin-7-yl)-6-(2-azaspiro[4.4]nonan-2-yl) pyrimidine-2,4-diamine], the IC50 in experiment [1] and in experiment [2] was 100 to 1000 nM throughout.
Consider `Cc1ccnc(Nc2nc(Nc3ccn4ccnc4c3)cc(N3CCOCC3)n2)c1` [Example 17, N4-(Imidazo[1,2-a]pyridin-7-yl)-N2-(4-methylpyridin-2-yl)-6-morpholinopyrimidine-2,4-diamine], for which the IC50 in experiment [1] and in experiment [2] was under 100 nM throughout.
Regarding `FC(F)(F)c1ccnc(Nc2nc(Nc3ccn4ccnc4c3)cc(N3CCOCC3)n2)c1` [Example 47, N4-(imidazo[1,2-a]pyridin-7-yl)-6-morpholino-N2-(4-(trifluoromethyl)pyridin-2-yl) pyrimidine-2,4-diamine], the IC50 in experiment [1] is under 100 nM; in experiment [2], 100 to 1000 nM.
Taken in the same sequence, the figures for `CCCCc1cccc(Nc2nc(Nc3ccn4ccnc4c3)cc(N3CCC3)n2)n1` [Example 167, 6-(azetidin-1-yl)-N2-(6-butylpyridin-2-yl)-N4-(imidazo[1,2-a]pyridin-7-yl)pyrimidine-2,4-diamine] were under 100 nM and 100 to 1000 nM.
Regarding `CCc1ccnc(Nc2nc(Nc3ccn4ccnc4c3)cc(N3CCN[C@@H](C)C3)n2)c1` [Example 97, (S)-N2-(4-ethylpyridin-2-yl)-N4-(imidazo[1,2-a]pyridin-7-yl)-6-(3-methylpiperazin-1-yl)pyrimidine-2,4-diamine], the IC50 in experiment [1] and in experiment [2] was 100 to 1000 nM in each case.
On to `Cc1cc(C)nc(Nc2nc(Nc3ccn4ccnc4c3)cc(NN3CCOCC3)n2)c1` [Example 199, N2-(4,6-dimethylpyridin-2-yl)-N4-(imidazo[1,2-a]pyridin-7-yl)-N6-morpholinopyrimidine-2,4,6-triamine], for which the IC50 in experiment [1] and in experiment [2] was under 100 nM throughout.
As to `Cc1cc(C)nc(Nc2nc(Nc3ccn4ccnc4c3)cc(N3C[C@@H](C)[C@H](C)C3)n2)c1` (relative stereo) [Example 193, N2-(4,6-dimethylpyridin-2-yl)-6-[trans-3,4-dimethylpyrrolidin-1-yl]-N4-(imidazo[1,2-a]pyridin-7-yl)pyrimidine-2,4-diamine], the IC50 in experiment [1] and in experiment [2] was under 100 nM throughout.
As to `Cc1cc(C)nc(Nc2nc(Nc3ccn4ccnc4c3)cc(N3CCOCC3)n2)c1` [Example 2, N2-(4,6-dimethylpyridin-2-yl)-N4-(imidazo[1,2-a]pyridin-7-yl)-6-morpholinopyrimidine-2,4-diamine], the IC50 in experiment [1] and in experiment [2] was under 100 nM throughout.
In the case of `COC1CCN(c2cc(Nc3ccn4ccnc4c3)nc(Nc3cc(C)cc(C)n3)n2)C1` (stereo not drawn) [Example 140, N2-(4,6-dimethylpyridin-2-yl)-N4-(imidazo[1,2-a]pyridin-7-yl)-6-(3-methoxypyrrolidin-1-yl)pyrimidine-2,4-diamine], the IC50 in experiment [1] and in experiment [2] was under 100 nM in each case.
For `Cc1cccc(Nc2nc(Nc3ccn4ccnc4c3)cc(N3CCOCC3)n2)n1` [Example 10, N4-(Imidazo[1,2-a]pyridin-7-yl)-N2-(6-methylpyridin-2-yl)-6-morpholinopyrimidine-2,4-diamine], the IC50 in experiment [1] and in experiment [2] was under 100 nM each time.
In the case of `FC(F)Oc1ccc(Nc2nc(Nc3ccn4ccnc4c3)cc(N3CCOCC3)n2)cn1` [Example 78, N2-(6-(difluoromethoxy)pyridin-3-yl)-N4-(imidazo[1,2-a]pyridin-7-yl)-6-morpholinopyrimidine-2,4-diamine], the values for the concentration for half-maximal inhibition (IC50) in experiment [1] and in experiment [2] were under 100 nM and 100 to 1000 nM, respectively.
For `Cc1cc(C2CC2)cc(Nc2nc(Nc3ccn4ccnc4c3)cc(N3CCCCC3)n2)n1` [Example 141, N2-(4-cyclopropyl-6-methylpyridin-2-yl)-N4-(imidazo[1,2-a]pyridin-7-yl)-6-(piperidin-1-yl)pyrimidine-2,4-diamine] the same measures were under 100 nM and 100 to 1000 nM.

Broadly, the IC50 is the concentration that inhibits the measured activity by half.
